Assay results: patent US20250280827A1, “An antifungal composition comprising natamycin and at least one insecticide” (priority 2021, published 2025)
Where two headings read alike, the source gives them in different places.

How the values were obtained:
Fusarium culmorum = assay: Antifungal effect against Fusarium culmorum on PDA petri dishes (fungal growth area, Colby synergy); assay type: cell-based
Source text: (§1) The Colby equation (Colby, 1967. Weeds 15:20-22) calculates the expected antifungal activity (E in %) of a combination comprising more than one active ingredients:
(§2) wherein X and Y are the observed antifungal activities (in %) of the individual active ingredients x and y, respectively. If the observed antifungal activity (O in %) of the combination exceeds the expected antifungal activity (E in %) of the combination and the synergy factor O/E is thus >1.0, the combined application of the active ingredients leads to a synergistic antifungal effect.
(§3) Agar medium was prepared by mixing in a 100 ml Duran bottle 3.9 g of potato dextrose agar (PDA) from Carl-Roth (Carl-Roth GmbH+Co. KG, Karlsruhe, Germany) with 100 ml deionized water and autoclaving the Duran bottle at 120° C. for 15 minutes. After autoclaving, the solution was cooled by putting it in a 48° C. oven for about two hours. Afterward the semi-liquid PDA solution was carefully mixed with natamycin and/or insecticide dosages as specified in Table 5 showing the interaction results on petri dishes. The medium in the Duran bottle was divided over 5 petri dishes (90×15 mm), 20 ml per petri dish by using 25 ml serological pipets (ROTILABO®; Carl-Roth). Each natamycin and/or insecticide treatment was performed in fivefold.
(§4) Fungal spore suspensions were prepared by drenching a fully grown petri dish with sterile water. The fungus was scraped off and filtered through a Miracloth (pore size: 22-25 μm) (Merck KGaA, Darmstadt, Germany; catalogue number: 475855). The number of spores were counted with a hemocytometer and fungal suspension was adjusted to 10^6 spores per ml. Afterward, 5 μl of prepared spore suspension was pipetted on the center of the agar plate. The plates were incubated at 25° C. Measurement of the fungal growth was done using callipers at different time points. Assessment of the infection area was 6 days after inoculation.
(§5) The insecticide levels and the period after which the assessments were made are presented as specified for the different insecticides are presented in Table 5 below. Synergistic calculation was done using the Colby equation. Experiment was performed in 5-fold.
The experiments were performed as described in Example 3. Assessment of the infection area was 6 days after inoculation. Experiment was performed in 5-fold.
The experiments were performed as described in Example 3. The product KARATE ZEON® of company Syngenta containing the active ingredient lambda-cyhalothrin belonging to IRAC Group 3 was tested. Assessment of the infection area was 3 days after inoculation. Experiment was performed in 5-fold.

Sclerotinia sclerotiorum = assay: Antifungal effect against Sclerotinia sclerotiorum infection on wounded skin of broad bean pods (rot area, Colby synergy); assay type: in vivo
Source text: as §1, §2
• 1) Control (without natamycin and lambda-cyhalothrin) • 2) Natamycin at a level of 15 ppm • 3) Lambda-cyhalothrin (in the product KARATE ZEON® of Syngenta) at a levels of 0.15 ppm, 0.6 ppm, 3 ppm and 15 ppm • 4) Natamycin at a level of 15 ppm combined with lambda-cyhalothrin at levels of 0.15 ppm, 0.6 ppm, 3 ppm or 15 ppm.
Used pathogen: Sclerotinia sclerotiorum.
(§6) Application: The broad bean pods were washed under tap water, and were subsequently surface sterilized by placing them in a 0.1% sodium hypochlorite solution for 5 minutes. The pods were then rinsed with tap water and dried. Transparent plastic containers were prepared by placing a piece of absorbing paper in the container and adding 25 ml of water, one container per treatment was used. The pods were cut in two, and two halve pods were incubated per box. The skin of broad bean pods was damaged with a needle, ø 2 mm and to a depth of about 3 mm into the fruit, with—depending on the size of the pod—2 to 4 wounds per half pod. In total, 6 wounds were incubated per treatment, of which 1 was used as a control. A volume of 20 microliter of a natamycin/insecticide composition, as presented herein above, was applied by pipette to each wound. The treatments were then left to air-dry. Once dried, a mycelium plug of Sclerotinia sclerotiorum was placed upside down on each wound, so that the mycelium was in direct contact with the wound. Per treatment 5 wounds were inoculated with the fungus, while the 6th and last wound was used as negative non-inoculated control. After inoculation, the containers were directly closed with a transparent plastic lid.
All pods were kept at room temperature (20° C.). Wounds of the pods were checked after 30 h of incubation.
Replicates: All treatments for the broad bean pod experiment were performed on two individual pod halves resulting in 5 wounds per treatment, while a sixth wound served as control.
The experiments were performed as described in Example 1.
The experiments were performed as described in Example 1. Assessment of the infection area was 23 h after inoculation. Experiment was performed in 5-fold.
The experiments were performed as described in Example 1. Thiamethoxam belongs to IRAC Group 4. Assessment of the infection area was 31 hours after inoculation. Experiment was performed in 5-fold.
The experiments were performed as described in Example 1. The product SPECTRE® of company (Adama) containing the active ingredient chlorfenapyr belonging to IRAC Group 13 was tested. Assessment of the infection area was 23 hours after inoculation. Experiment was performed in 5-fold.

Fusarium graminerum = assay type: cell-based; conditions: 6 days after inoculation
Source text: as §1, §2, §3, §4, §5
The experiments were performed as described in Example 3. The product KARATE ZEON® of company Syngenta containing the active ingredient lambda-cyhalothrin belonging to IRAC Group 3 was tested. Assessment of the infection area was 6 days after inoculation. Experiment was performed in 5-fold.

Botrytis cinerea = assay: Antifungal effect against Botrytis cinerea infection on wounded peel of banana fruits (Colby synergy); assay type: in vivo; conditions: 5 days after inoculation
Source text: as §2, §6
The infection area was measured 5 days after inoculation.
A few changes were made for the banana experiments: 5 wounds per banana were made, on each wound 40 microliter of treatments was pipetted. The treatments were then left to air-dry. Once dried, 2 microliter of a freshly prepared inoculum was pipetted on four of the wounds. The inoculum consists of […] potato dextrose broth (PDB) medium containing Botrytis cinerea spores at a concentration of 10^6 spores per ml. The fifth wound was used as negative non-inoculated control. Experiment was performed in 4-fold.
Assessment of the infection area was performed 3 days after inoculation. Experiment was performed in 4-fold.
Imidacloprid was formulated as described in Table 2. Assessment of the efficacy was 5 days after inoculation. Experiment was performed in 4-fold.

[1] = natamycin-insecticide 0-0.05 ppm, 6 days after inoculation, Table 6
[2] = natamycin-insecticide 0-0.1 ppm, 6 days after inoculation, Table 6
[3] = natamycin-insecticide 0-0.2 ppm, 6 days after inoculation, Table 6
[4] = natamycin-insecticide 0-0.5 ppm, 6 days after inoculation, Table 6
[5] = natamycin-insecticide 0-0.15 ppm, 23 h after inoculation, Table 4
[6] = natamycin-insecticide 0-0.6 ppm, 23 h after inoculation, Table 4
[7] = natamycin-insecticide 0-3 ppm, 23 h after inoculation, Table 4
[8] = natamycin-insecticide 0-15 ppm, 23 h after inoculation, Table 4
[9] = natamycin-insecticide 0-0.05 ppm, Table 5
[10] = natamycin-insecticide 0-0.1 ppm, Table 5
[11] = natamycin-insecticide 0-0.2 ppm, Table 5
[12] = natamycin-insecticide 0-0.5 ppm, Table 5
[13] = natamycin-insecticide 0:0.004 ppm, Table 12B
[14] = natamycin-insecticide 0:0.01 ppm, Table 12A
[15] = natamycin-insecticide 0:0.04 ppm, Table 12A
[16] = natamycin-insecticide 0:1 ppm, Table 12A
[17] = natamycin-insecticide 0-0.05 ppm, 3 days after inoculation, Table 11
[18] = natamycin-insecticide 0-0.1 ppm, 3 days after inoculation, Table 11
[19] = natamycin-insecticide 0-0.2 ppm, 3 days after inoculation, Table 11
[20] = natamycin-insecticide 0-0.5 ppm, 3 days after inoculation, Table 11
[21] = natamycin-insecticide 0-0.15 ppm, 30 h after inoculation, Table 3
[22] = natamycin-insecticide 0-0.6 ppm, 30 h after inoculation, Table 3
[23] = natamycin-insecticide 0-3 ppm, 30 h after inoculation, Table 3
[24] = natamycin-insecticide 0-15 ppm, 30 h after inoculation, Table 3
[25] = natamycin-insecticide 0-0.1 ppm, Table 10
[26] = natamycin-insecticide 0-0.2 ppm, Table 10
[27] = natamycin-insecticide 0-0.5 ppm, Table 10
[28] = natamycin-insecticide 0-1 ppm, Table 10

Work on CCOC(=O)/C=C(C)/C=C/CC(C)CCCC(C)C (centres unmarked) [hydroprene] yielded an Avg infected area (Fusarium culmorum; [1]) of 934.7 mm2, an Observed antifungal activity (Fusarium culmorum; [1]) of 6.4% and an Avg infected area (Fusarium culmorum; [2]) of 1010.5 mm2. For the same compound, the Observed antifungal activity (Fusarium culmorum; [2]) was −1.2%, the Avg infected area (Fusarium culmorum; [3]) was 1014.3 mm2 and the Observed antifungal activity (Fusarium culmorum; [3]) was −1.6%. For the same compound, the Avg infected area (Fusarium culmorum; [4]) was 1060.2 mm2, the Observed antifungal activity (Fusarium culmorum; [4]) was −6.2% and the Avg infected area (Sclerotinia sclerotiorum; [5]) was 99.3 mm2. The Observed antifungal activity (Sclerotinia sclerotiorum; [5]) was 36.6%, the Avg infected area (Sclerotinia sclerotiorum; [6]) was 103.1 mm2 and the Observed antifungal activity (Sclerotinia sclerotiorum; [6]) was 34.2%. The Avg infected area (Sclerotinia sclerotiorum; [7]) was 74.5 mm2, the Observed antifungal activity (Sclerotinia sclerotiorum; [7]) was 52.5% and the Avg infected area (Sclerotinia sclerotiorum; [8]) was 89 mm2. For the same compound, the Observed antifungal activity (Sclerotinia sclerotiorum; [8]) was 43.2%, the Avg infected area (Fusarium graminerum; [9]) was 1124 mm2 and the Observed antifungal activity (Fusarium graminerum; [9]) was 1.0%. It also gave an Avg infected area (Fusarium graminerum; [10]) of 1142.1 mm2, an Observed antifungal activity (Fusarium graminerum; [10]) of −0.6% and an Avg infected area (Fusarium graminerum; [11]) of 970.5 mm2. For the same compound, the Observed antifungal activity (Fusarium graminerum; [11]) was 14.5%, the Avg infected area (Fusarium graminerum; [12]) was 1055.1 mm2 and the Observed antifungal activity (Fusarium graminerum; [12]) was 7.1%.

Work on CC1(C)[C@H](/C=C(\Cl)C(F)(F)F)[C@@H]1C(=O)O[C@@H](C#N)c1cccc(Oc2ccccc2)c1 [lambda-cyhalothrin, [(R)-cyano-(3-phenoxyphenyl)methyl] (1S,3S)-3-[(Z)-2-chloro-3,3,3-trifluoroprop-1-enyl]-2,2-dimethylcyclopropane-1-carboxylate] yielded an Avg infected area (Botrytis cinerea; [13]) of 82.4 mm2, an Observed antifungal activity (Botrytis cinerea; [13]) of 16.6% and an Avg infected area (Botrytis cinerea; [14]) of 38.9 mm2. It also gave an Observed antifungal activity (Botrytis cinerea; [14]) of 39.0%, an Avg infected area (Botrytis cinerea; [15]) of 55.1 mm2 and an Observed antifungal activity (Botrytis cinerea; [15]) of 13.7%. For the same compound, the Avg infected area (Botrytis cinerea; [16]) was 41.8 mm2, the Observed antifungal activity (Botrytis cinerea; [16]) was 34.6% and the Avg infected area (Fusarium culmorum; [17]) was 384.0 mm2. It also gave an Observed antifungal activity (Fusarium culmorum; [17]) of −5.9%, an Avg infected area (Fusarium culmorum; [18]) of 383.9 mm2 and an Observed antifungal activity (Fusarium culmorum; [18]) of −5.8%. It also gave an Avg infected area (Fusarium culmorum; [19]) of 370.9 mm2, an Observed antifungal activity (Fusarium culmorum; [19]) of −2.2% and an Avg infected area (Fusarium culmorum; [20]) of 381.7 mm2. It also gave an Observed antifungal activity (Fusarium culmorum; [20]) of −5.2%, an Avg infected area (Sclerotinia sclerotiorum; [21]) of 314.73 mm^2 and an Observed antifungal activity (Sclerotinia sclerotiorum; [21]) of −0.1%. For the same compound, the Avg infected area (Sclerotinia sclerotiorum; [22]) was 325.88 mm^2, the Observed antifungal activity (Sclerotinia sclerotiorum; [22]) was −3.7% and the Avg infected area (Sclerotinia sclerotiorum; [23]) was 350.24 mm^2. For the same compound, the Observed antifungal activity (Sclerotinia sclerotiorum; [23]) was −11.4%, the Avg infected area (Sclerotinia sclerotiorum; [24]) was 322.41 mm^2 and the Observed antifungal activity (Sclerotinia sclerotiorum; [24]) was −2.5%. It also gave an Avg infected area (Fusarium graminerum; [25]) of 4846.2 mm2, an Observed antifungal activity (Fusarium graminerum; [25]) of −34.1% and an Avg infected area (Fusarium graminerum; [26]) of 5071.1 mm2. The Observed antifungal activity (Fusarium graminerum; [26]) was −40.3%, the Avg infected area (Fusarium graminerum; [27]) was 4842.3 mm2 and the Observed antifungal activity (Fusarium graminerum; [27]) was −34%. The Avg infected area (Fusarium graminerum; [28]) was 4714.2 mm2 and the Observed antifungal activity (Fusarium graminerum; [28]) was −30.4%.
